Reference: US11644466B2, “Methods for treating, preventing and predicting risk of developing breast cancer” (Dana-Farber Cancer Institute, Inc., priority 2012, dated 2023)
Entries after “also recorded” stand apart in the source; their conditions may differ.

System: normal human breast tissues (breast epithelial cells)
Test: Tissue explant (tissue slice) culture of normal breast tissue with pathway inhibitors, hormones or tamoxifen: frequency of BrdU+, Ki67+ and p27+ cells
Format: cell-based
Conditions: for number of cells incorporating BrdU: BrdU pulse 5 hrs; for frequency (numbers) of p27+ cells: normal breast tissue explant / tissue slice culture with inhibitor or tamoxifen, 8-10 days, FIG. 24, FIG. 26C
[1] = normal breast tissue explant culture with inhibitor for 8-10 days, versus control, FIG. 24

Experimental: The multicolor immunofluorescence for p27 and Ki67 was performed by incubating the samples with monoclonal antibody anti-p27 (1:100 dilution) and polyclonal antibody anti-Ki67 (1:50 dilution) for one hour at room temperature followed by goat anti-mouse IgG1 Alexa 555-conjugated (Invitrogen, 1:100 dilution, for detection of p27) and goat anti-rabbit Alexa 488-conjugated (Invitrogen, 1:100 dilution, for detection of Ki67) for 30 minutes at room temperature. Multicolor immunofluorescence for pSMAD2 (1:50 dilution), pEGFR (1:50 dilution) and Axin2 (1:20 dilution) were performed by incubation for 2 h at room temperature or overnight at 4° C. followed by secondary antibody Rabbit Alexa 488 conjugated (Invitrogen, 1:100 dilution for pSMAD2 and pEGFR) or mouse IgG1 Alexa-488 conjugated (Invitrogen 1:100 dilution) for Axin2 for 30 minutes at room temperature.
Scoring for the expression of each marker was done as follows: p27 fluorescence intensity was scored in the nuclei of 20 randomly selected cells using the ImageJ 1.43r software; Sox17 and COX2 expression was inferred by the combination of two variables: 1) the percentage cells expressing each marker, and 2) the intensity of each marker transformed into a categorical variable based on 0 no expression, 1 weak expression, 2 moderate expression and 3 high expression; the percentage of p27+, Ki67+ and BrdU+ cells was estimated by counting an average of 1000 cells/sample in the case of the mammary epithelium for premenopausal, postmenopausal and high-low density cases, and an average of 2,000 cells in the case of the tissue slices cultures. % of pSMAD2+ cells was estimated by counting an average of 600 cells/sample. For pEGFR and Axin2 fluorescence intensity measurement, mean fluorescence intensity was measured using Image J 1.43r software by counting an average of 600 cells/sample corrected by area and subtracting the average of background fluorescence intensity. […] For p27 and AR staining, p27 (1:100 dilution and AR (1:30 dilution) antibodies were incubated overnight at 40 C followed by incubation at RT for 1 h with subsequent staining by goat anti-mouse IgG1 Alexa 555-conjugated (Invitrogen, 1:100 dilution, for detection of p27) and anti-rabbit IgG Alexa 488-conjugated (Invitrogen, 1:80 dilution). Percentage of p27+, AR+, ER+ cells was estimated by counting 500-1000 cells/sample. Nuclear staining with DAPI and multiple fluorescence images from each section were acquired with 40× plan apo objective, following procedure described above.
Normal human breast tissues were collected from reduction mammoplasties, transported in ice-cold DMEM-F12 medium, and processed within 24 hrs. For organ cultures, thin (˜1 mm thick) slices of tissue were cut from epithelium-enriched areas and cultured for 8 days in 6-well plates using co-culture inserts to optimize the tissue/medium contact surface and changing medium (2 ml/well) every 24 hrs. […] Following 8 days of culture, labeled tissue slices were pulse with bromo-deoxy-uridine (30 μM final concentration) for 5 hrs before fixing the tissue in buffered formalin at room temperature for 24 hrs followed by embedding in paraffin. Experiments were performed in triplicates using tissue from different regions of the same breast, uncultured tissue and tissue cultured without any drugs as controls.

| SMILES | number of cells incorporating BrdU [1] | fraction of Ki67+ cells [1] | frequency (numbers) of p27+ cells | numbers of p27+ cells (tissue slices treated with concentrations of estrogen present in follicular phase (0.5 μM of estradiol for 8 days), FIG. 26B) |
| --- | --- | --- | --- | --- |
| COc1cc2ncnc(Nc3cccc(Cl)c3)c2cc1OC [EGFR, tyrphostin AG1478] | significantly (p<0.05) decreased | decreased |  |  |
| CC1=C2C[C@H]3[C@@H](CC=C4C[C@@H](O)CC[C@@]43C)[C@@H]2CC[C@]12O[C@@H]1C[C@H](C)CN[C@H]1[C@H]2C [Hh, cyclopamine] | significantly (p<0.05) decreased |  |  |  |
| COc1cc([C@@H]2c3cc4c(cc3[C@H](O)[C@H]3COC(=O)[C@@H]23)OCO4)cc(OC)c1OC [IGFR, picropodophylotoxin] | significantly (p<0.05) decreased |  | most pronouncedly decreased; also recorded: decreased |  |
| c1ccc(-c2nn3c(c2-c2ccnc4cc(OCCN5CCOCC5)ccc24)CCC3)nc1 [TGFBR inhibitor, LY2109761] | opposite effect |  | most pronouncedly decreased; also recorded: decreased |  |
| C[C@]12CC[C@@H]3c4ccc(O)cc4CC[C@H]3[C@@H]1CC[C@@H]2O [estrogen, estradiol] |  |  |  | high |
| CC/C(=C(\c1ccccc1)c1ccc(OCCN(C)C)cc1)c1ccccc1 [tamoxifen] |  |  | high |  |
